Measured values published in ChEMBL document CHEMBL1156829 (Proc Natl Acad Sci U S A, 2008).
Where “and” joins values, the source holds several entries; their conditions need not be identical. Equal entries are not always repeated.

How the values were obtained:
[1] = tested on: Plasmodium falciparum; experiment: NOVARTIS: Inhibition of Plasmodium falciparum W2 (drug-resistant) proliferation in erythrocyte-based infection assay; assay type: functional, organism-based; conditions: read-out: EC50
[2] = tested on: Plasmodium falciparum; experiment: NOVARTIS: Inhibition of Plasmodium falciparum 3D7 (drug-susceptible) proliferation in erythrocyte-based infection assay; assay type: functional, organism-based
[3] = tested on: Huh-7; experiment: NOVARTIS: Cytotoxicity against human hepatocellular carcinoma cell line (Huh7); assay type: toxicity, cell-based; conditions: huh-7, read-out: CC50

| SMILES | EC50 [1] | EC50 [2] | CC50 [3] | EC50 ([1]; Plasmodium falciparum, W2) [nM] | EC50 ([2]; Plasmodium falciparum, 3D7) [nM] |
| --- | --- | --- | --- | --- | --- |
| CC[n+]1c(/C=C/N(C)c2ccccc2)n(-c2ccccc2)c2ccc(-c3nc4ccccc4s3)cc21 | > 1730 nM and 314 nM | > 929 nM and 460 nM | > 10000 nM and 26900 nM | – | – |
| CCN1/C(=C/c2ccc3ccccc3[n+]2CC)C=Cc2ccccc21 | 544 nM and 189 nM | 618 nM and 65.8 nM | > 10000 nM and 36800 nM | – | – |
| CCN1C(=Cc2sc3ccccc3[n+]2C)C=Cc2cccc(C)c21 [listing 1 of 2 here] | 800 nM | 493 nM | > 10000 nM | – | – |
| CCN1/C(=C/c2sc3ccccc3[n+]2CC)Sc2ccccc21 | 248 nM | 557 nM | 32600 nM | – | – |
| CC[n+]1c(C=C2Sc3ccccc3N2CCO)sc2ccccc21 | > 1480 nM | 1410 nM | > 10000 nM | – | – |
| Cc1ccc(N=C2NC(=O)/C(=C\c3ccc(N(C)C)cc3)S2)cc1 | 488 nM and 1250 nM | 615 nM and 1470 nM | > 100000 nM | – | – |
| CCN1/C(=C/c2ccc3ccccc3[n+]2CC)Sc2cc(NC(C)=O)ccc21 [listing 1 of 2 here] | 70.8 nM | 112 nM | > 100000 nM | – | – |
| CCN1/C(=C/c2cccc[n+]2C)C=Cc2ccccc21 | 572 nM | 401 nM | > 64500 nM | 522 | 667 |
| C[n+]1ccc(C=Cc2ccc(O)cc2)cc1 | 175 nM | 303 nM | > 10000 nM | – | – |
| CCN1/C(=C/c2ccc3ccccc3[n+]2CC)Sc2cc(NC(C)=O)ccc21 [listing 2 of 2 here] | 714 nM | 930 nM | > 10000 nM | – | – |
| CCN1/C(=C/c2[se]c3ccccc3[n+]2CC)C=Cc2cc(OC)ccc21 [listing 1 of 2 here] | 977 nM | 1590 nM | 12700 nM | – | – |
| Cc1occc1C(=O)NN=C/C(Br)=C/c1ccccc1 | 502 nM | 1370 nM and 206 nM | > 10000 nM and 47100 nM | 593 | – |
| CCN1/C(=C/c2cccc[n+]2C)Sc2ccc(C)cc21 | 545 nM and 2280 nM | 487 nM and 1350 nM | > 100000 nM | – | – |
| CCN1/C(=C/c2cccc[n+]2C)C=Cc2cc(C)ccc21 | 959 nM | 803 nM | > 100000 nM | 596 | 425 |
| CCN(CC)c1ccc(C=Cc2cccc[n+]2CC)cc1 | 290 nM | 2.44 nM | > 10000 nM | – | – |
| CCCC[n+]1c(C=C2C=Cc3ccccc3N2CC)sc2ccccc21 | 228 nM | 81.5 nM | 6120 nM | – | – |
| CC[n+]1ccccc1C=Cc1ccc(N(C)C)cc1 | 1270 nM and 271 nM and 380 nM | 260 nM and 350 nM | 15200 nM and > 10000 nM and > 100000 nM | – | 364 |
| CC[n+]1c(C=CN(C)c2ccccc2)oc(-c2ccccc2)c1-c1ccccc1 | 410 nM and 105 nM | 617 nM and 193 nM | > 10000 nM and 2740 nM | – | – |
| CCN1/C(=C/c2cccc[n+]2C)C=Cc2ccc(C)cc21 | 448 nM | 225 nM and 489 nM | > 49800 nM | 328 | – |
| COc1cc(/C=C2/SC(=Nc3ccccc3)NC2=O)ccc1OCc1ccccc1F | > 12500 nM | > 1100 nM and 3670 nM | > 100000 nM | – | – |
| CC[n+]1c(/C=C/N2CCCc3ccccc32)ccc2ccccc21 | 246 nM | 103 nM | > 9970 nM | – | – |
| CC[n+]1c(C=CN(C)C)sc2ccccc21 | 462 nM | 443 nM | > 10000 nM | – | – |

| SMILES | EC50 [1] | EC50 [2] | CC50 [3] | EC50 ([1]; Plasmodium falciparum, W2) [nM] | EC50 ([2]; Plasmodium falciparum, 3D7) [nM] |
| --- | --- | --- | --- | --- | --- |
| CCN1C(=Cc2sc3cc(NC(C)=O)ccc3[n+]2CC)C=Cc2cc(C)ccc21 [listing 1 of 2 here] | – | 1570 nM | > 10000 nM | 568 | – |
| CN1/C(=C/c2cccc[n+]2C)C=Cc2ccccc21 | 779 nM | 557 nM | > 100000 nM | 526 | 446 |
| CC[n+]1c(/C=C2\C=Cc3cc(C)ccc3N2C)ccc2cc(C)ccc21 | 961 nM | > 1150 nM and 225 nM | > 10000 nM and 32100 nM | > 1250 | – |
| CCN1/C(=C\C=C\c2n(CC)c3ccc(C#N)cc3[n+]2CC)Oc2ccc(-c3ccccc3)cc21 [listing 1 of 2 here] | 6060 nM | 3850 nM | > 100000 nM | – | – |
| CCOC(=O)c1ccc(-n2c(C)cc(/C=C3\SC(=Nc4ccc(Cl)cc4)NC3=O)c2C)cc1 | 1420 nM | 844 nM and 3370 nM | > 100000 nM | 1700 | – |
| CCn1c(C=CN(C(C)=O)c2ccccc2)[n+](CC)c2cc(Cl)ccc21 | 1580 nM | 2590 nM | > 100000 nM | – | – |
| C[n+]1c(C=CNc2ccccc2)n(-c2ccccc2)c2ccc(Cl)cc21 | 318 nM | 534 nM | 23800 nM | – | – |
| Cc1ccc(-n2c(C)cc(/C=C3\SC(=Nc4ccc(Cl)cc4)NC3=O)c2C)cc1 | 629 nM | 512 nM and 194 nM | > 100000 nM | 611 | – |
| CC1=C(C=CC(C)C=NNC(=O)c2ccncc2)C(C)(C)CCC1 (centres undefined) | 1110 nM | 1420 nM | > 100000 nM | 863 | 896 |
| CC(C)c1ccc(/C=C2/SC(=Nc3ccccc3)NC2=O)cc1 | 1010 nM | 1000 nM and 479 nM | > 100000 nM | 1130 | – |
| CCN1/C(=C/c2cccc[n+]2C)Sc2ccccc21 | 1070 nM and 2700 nM | 4250 nM and 440 nM | > 100000 nM | – | – |
| O=C1NC(=Nc2ccccc2)/C(=C/c2ccc(O)cc2)S1 | 2160 nM | 810 nM | > 10000 nM and 21000 nM | > 1090 | > 1250 |
| CCN1C(=Cc2sc3ccccc3[n+]2C)C=Cc2cccc(C)c21 [listing 2 of 2 here] | 228 nM | 65.4 nM | 27400 nM | – | – |
| CCN1/C(=C\C=C\c2n(CC)c3ccc(C#N)cc3[n+]2CC)Oc2ccc(-c3ccccc3)cc21 [listing 2 of 2 here] | 1060 nM | 610 nM | > 10000 nM | – | – |
| CC[n+]1c(/C=C2\Sc3cc(C)ccc3N2CCO)ccc2ccccc21 | 861 nM and 228 nM | 1200 nM and 195 nM | > 10000 nM and 21300 nM | – | – |
| O=C(Nc1ccc(-c2nc3cc(NC(=O)c4cccc([N+](=O)[O-])c4)ccc3[nH]2)cc1)c1cccc([N+](=O)[O-])c1 | 635 nM and 246 nM | 324 nM | 1670 nM and 667 nM | – | 489 |
| C/C(C=NNC(=O)c1ccco1)=C\c1ccccc1 | 650 nM | > 1760 nM and 486 nM | > 100000 nM | > 1100 | – |
| COc1ccc2c(c1)N(C)/C(=C/c1cccc[n+]1C)S2 | > 787 nM and 302 nM | 941 nM and 219 nM | > 100000 nM | – | – |
| C=C[C@H]1C[N@]2CC[C@H]1C[C@@H]2[C@@H](OC(=O)Cc1cccs1)c1ccnc2ccccc12 | 78.7 nM | 9.8 nM and 62.2 nM | > 10000 nM and 95100 nM | 46.6 | – |
| C[n+]1ccc(/C=C/c2c[nH]c3ccccc23)cc1 | 95.9 nM | 136 nM and 472 nM | > 100000 nM | 63.2 | – |
| CCN1/C(=C/c2[se]c3ccccc3[n+]2CC)C=Cc2cc(OC)ccc21 [listing 2 of 2 here] | 266 nM | 171 nM | 4950 nM | – | – |
| CCN1C(=Cc2sc3ccc(OC)cc3[n+]2CC)C=Cc2ccccc21 [listing 1 of 2 here] | 208 nM | 20.4 nM | 24800 nM | – | – |

| SMILES | EC50 [1] | EC50 [2] | CC50 [3] | EC50 ([1]; Plasmodium falciparum, W2) [nM] | EC50 ([2]; Plasmodium falciparum, 3D7) [nM] |
| --- | --- | --- | --- | --- | --- |
| O=C1NN(c2ccccc2)C(=O)/C1=C1/C(=O)N(Cc2cccc3ccccc23)c2ccccc21 | > 1250 nM and 3260 nM | > 541 nM and 5050 nM | > 100000 nM | – | – |
| CCN1C(=Cc2ccc3ccccc3[n+]2CC)C=Cc2sc3ccccc3c21 | 44 nM and 148 nM | 188 nM and 50.9 nM | 2970 nM and 27800 nM | – | – |
| C=CCN1C=CC(=Cc2sc3ccccc3[n+]2C)c2ccccc21 | 115 nM | 89.7 nM | 14200 nM | – | – |
| O=C1NC(=Nc2ccccc2)S/C1=C/c1ccc(F)c(Br)c1 | 1630 nM and > 94.2 nM | > 12500 nM | > 100000 nM | – | – |
| CCN1C(=Cc2sc3cc(NC(C)=O)ccc3[n+]2CC)C=Cc2cc(C)ccc21 [listing 2 of 2 here] | 581 nM | 161 nM | > 90600 nM | – | – |
| CCOc1ccc(Br)cc1/C=C1\SC(=Nc2ccccc2CC)N(c2ccccc2CC)C1=O | > 1250 nM and 4860 nM | 8330 nM and > 835 nM | > 100000 nM | – | – |
| C=CCN1C(=O)/C(=C2/Sc3ccc(OC)cc3N2C)SC1=Nc1ccccc1-c1ccccc1 | 838 nM | 2120 nM | > 100000 nM | 488 | 1180 |
| Cc1ccc(/C=C2/SC(=Nc3ccccc3)NC2=O)c(C)c1 | 351 nM | 468 nM and 232 nM | > 100000 nM | 455 | – |
| CCN1C=C/C(=C\c2cccc[n+]2C)c2ccccc21 | 683 nM and 1960 nM | 1030 nM | > 100000 nM | – | 827 |
| CCCCN1C(=Cc2cccc[n+]2C)Sc2cc(NC(C)=O)ccc21 | 3670 nM | 2110 nM | > 100000 nM | – | – |
| CC[n+]1c(C=CN(C)c2ccccc2)sc2ccc(Cl)cc21 | 367 nM | 223 nM | > 10000 nM and 23000 nM | 352 | 156 |
| CCCCCC[n+]1ccccc1C=Cc1ccc(N(C)C)cc1 | 211 nM | 96.1 nM | 2410 nM | – | – |
| CC[n+]1c(/C=C2\Sc3oc4ccccc4c3N2C)ccc2cc(C)ccc21 | 89.7 nM | 87.5 nM and 253 nM | 3590 nM and 13600 nM | 84.7 | – |
| CCN1/C(=C/c2ccc3cc(C)ccc3[n+]2C)Sc2ccc3ccsc3c21 | 843 nM | 951 nM and 371 nM | > 10000 nM and 55900 nM | > 1250 | – |
| CCN1C(=Cc2sc3ccc(OC)cc3[n+]2CC)C=Cc2ccccc21 [listing 2 of 2 here] | – | 417 nM | 9870 nM | 249 | – |
| C=C(c1ccccc1)[n+]1ccc(/C=C/c2ccccc2O)cc1 | 289 nM | 355 nM and 739 nM | > 10000 nM and 92700 nM | 277 | – |
| CCN1/C(=C/C=C/C2=[N+](C)c3ccc(C)cc3C2(C)C)C=Cc2ccccc21 | 860 nM and 184 nM | 861 nM and 158 nM | > 10000 nM and 4990 nM | – | – |
| CCn1c(/C=C/N(C)c2ccccc2)[n+](CC)c2cc(Cl)ccc21 | 513 nM and 87.8 nM | 391 nM and 91.3 nM | 22600 nM and > 10000 nM | – | – |
| CCN1/C(=C/c2ccc3cc(OC)ccc3[n+]2CC)Sc2ccc(NC(C)=O)cc21 | 119 nM | 31.1 nM and 113 nM | > 52000 nM | 82.6 | – |
| CCN1C(=Cc2sc3ccccc3[n+]2C)C=Cc2ccc(C)cc21 | 291 nM | 122 nM | 11400 nM | – | – |
| CCN1C(=Cc2sc3ccc(Cl)cc3[n+]2CC)C=Cc2cc(OC)ccc21 | 91.8 nM | 16.7 nM | 11900 nM | – | – |
| CCN1/C(=C/C=C/c2sc3ccccc3[n+]2CC)Sc2ccccc21 | 164 nM | 258 nM | 9030 nM | – | – |
